Reference: PubChem BioAssay AID256 (DTP/NCI, 2004)
Inconclusive results and toxic doses are left out. The calls were made as follows: active = survival T/C of 150% or more; inactive = T/C below 125% in these data.

System: CD2F1 mice, L1210 leukemia ip, survival T/C
Assay: NCI In Vivo Anticancer Drug Screen. Data for tumor model L1210 Leukemia (intraperitoneal) in CD2F1 (CDF1) mice
Conditions: higher = longer survival
How it was run: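 Activity against a transplanted murine tumor was judged by comparing the compound group with a vehicle group. The outcome in the treated animals was divided by that in the controls.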

Measured: T/C

Cc1sc(N)c(C#N)c1C
inactive: endpoint: mean survival time, dose: 100.0 mg/kg/injection, schedule: Q01DX009 (ip), vehicle: saline sonified 102 % of control | endpoint: mean survival time, dose: 200.0 mg/kg/injection, schedule: Q01DX009 (ip), vehicle: saline sonified 102 % of control | endpoint: mean survival time, dose: 400.0 mg/kg/injection, schedule: Q01DX009 (ip), vehicle: saline sonified 103 % of control

O=C(CCl)c1cc(Cl)c(O)c(Cl)c1
inactive: endpoint: mean survival time, dose: 50.0 mg/kg/injection, schedule: Q01DX001 (ip), vehicle: carboxymethylcellulose (CMC) 97 % of control

CC(C)[C@]12O[C@H]1[C@@H]1O[C@]13[C@]1(O[C@H]1C[C@H]1C4=C(CC[C@@]13C)C(=O)OC4)[C@@H]2O
inactive: endpoint: mean survival time, dose: 0.8 micrograms/kg/injection, schedule: Q01DX009 (ip), vehicle: saline + alcohol 96 % of control | endpoint: mean survival time, dose: 1.6 micrograms/kg/injection, schedule: Q01DX009 (ip), vehicle: saline + alcohol 91 % of control | endpoint: mean survival time, dose: 6.3 micrograms/kg/injection, schedule: Q01DX009 (ip), vehicle: saline + alcohol 93 % of control | endpoint: mean survival time, dose: 12.5 micrograms/kg/injection, schedule: Q01DX009 (ip), vehicle: saline + alcohol 95 % of control | endpoint: mean survival time, dose: 25.0 micrograms/kg/injection, schedule: Q01DX009 (ip), vehicle: saline + alcohol 96 % of control | endpoint: mean survival time, dose: 50.0 micrograms/kg/injection, schedule: Q01DX009 (ip), vehicle: saline + alcohol 90 % of control | endpoint: mean survival time, dose: 100.0 micrograms/kg/injection, schedule: Q01DX009 (ip), vehicle: saline + alcohol 110 % of control | endpoint: median survival time, dose: 0.02 mg/kg/injection, schedule: Q03HX024 (ip), vehicle: saline + alcohol 111 % of control | endpoint: median survival time, dose: 0.03 mg/kg/injection, schedule: Q03HX024 (ip), vehicle: saline + alcohol 120 % of control | endpoint: median survival time, dose: 0.06 mg/kg/injection, schedule: Q01DX009 (ip), vehicle: saline + alcohol 104 % of control | endpoint: median survival time, dose: 0.06 mg/kg/injection, schedule: Q01DX009 (sc), vehicle: saline + alcohol 112 % of control | endpoint: median survival time, dose: 0.13 mg/kg/injection, schedule: Q01DX009 (ip), vehicle: saline + alcohol 120 % of control | endpoint: median survival time, dose: 0.13 mg/kg/injection, schedule: Q01DX009 (sc), vehicle: saline + alcohol 104 % of control | endpoint: median survival time, dose: 0.25 mg/kg/injection, schedule: Q04DX003 (ip), vehicle: saline + alcohol 112 % of control | endpoint: median survival time, dose: 0.25 mg/kg/injection, schedule: Q08DX002 (ip), vehicle: saline + alcohol 107 % of control | endpoint: median survival time, dose: 0.5 mg/kg/injection, schedule: Q01DX001 (sc), vehicle: saline + alcohol 105 % of control | endpoint: median survival time, dose: 0.5 mg/kg/injection, schedule: Q04DX003 (ip), vehicle: saline + alcohol 120 % of control | endpoint: median survival time, dose: 0.5 mg/kg/injection, schedule: Q08DX002 (ip), vehicle: saline + alcohol 115 % of control | endpoint: median survival time, dose: 1.0 mg/kg/injection, schedule: Q01DX001 (sc), vehicle: saline + alcohol 107 % of control | endpoint: median survival time, dose: 1.0 mg/kg/injection, schedule: Q04DX003 (ip), vehicle: saline + alcohol 110 % of control | endpoint: median survival time, dose: 1.0 mg/kg/injection, schedule: Q08DX002 (ip), vehicle: saline + alcohol 116 % of control
